# Laboratory results reported in paper PMC10066365, “Nemacol is a small molecule inhibitor of C. elegans vesicular acetylcholine transporter with anthelmintic potential” (Nature Communications, 2023).
# “And” between values parts separate entries of the source, which are not always exact repeats. Equal values may be shown once. Read-outs that look alike come from different tables or passages of the source.
# Assays:
# C. elegans = C. elegans motor phenotype scoring on solid media (Punc/jerky-unc, coiled, paralyzed), wild-type young adults; assay type: in vivo, Caenorhabditis elegans; settings: for any phene, mean % fraction of young adults exhibiting any phenotype (coiled, jerky-Unc or paralyzed) / atypical locomotion (number of animals) / coiled (number of animals) / no phene (number of animals) / paralyzed (number of animals) / any phene: mean % fraction of young adults exhibiting any phenotype (coiled, jerky-Unc or paralyzed): one hour; for any phene, mean % fraction of young adults exhibiting any phenotype (coiled, jerky-Unc or paralyzed) / any phene: mean % fraction of young adults exhibiting any phenotype (coiled, jerky-Unc or paralyzed): mean of three biological replicates; for atypical locomotion (number of animals) / coiled (number of animals) / no phene (number of animals) / paralyzed (number of animals): young adults, 20 animals per trial; for EC50: Caenorhabditis elegans, read-out: C. elegans - motor disruption EC50
# [1] = tested on: Dirofilaria immitis microfilariae; test: Dirofilaria immitis microfilariae immobility assay (DiroImager, 72 h); settings: Dirofilaria immitis microfilariae
# Summary of the method: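 Motility read after 72 h drug exposure with an image-based high-throughput plate imager, 1% DMSO medium serving as negative control. Missouri-isolate microfilariae, roughly 250 per well, freshly purified and cultured in supplemented RPMI 1640.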
# [2] = tested on: Dirofilaria immitis L3/L4; test: Dirofilaria immitis L3/L4 motility assay (DiroImager, 72 h); settings: Dirofilaria immitis L4
# Pristionchus pacificus = Pristionchus pacificus motor disruption dose-response on solid media, 1 h; settings: for mean % any phene (coiled, jerky-Unc or paralyzed): Pristionchus pacificus young adults, mean of three biological replicates; for EC50: Pristionchus pacificus, 1 h, read-out: P. pacificus motor disruption EC50
# [3] = 3.75uM, single replicate counts
# [4] = conc 3.75, observed at one hour
# [5] = 3.75uM, single technical replicate
# [6] = 15uM, single technical replicate
# [7] = 60uM, single technical replicate
# [8] = any motor phenotype after 1 h on solid media, ± 95% CI
SMILES,"any phene, mean % fraction of young adults exhibiting any phenotype (coiled, jerky-Unc or paralyzed) (C. elegans; 3.75uM) [%]",atypical locomotion (number of animals) (C. elegans; [3]),coiled (number of animals) (C. elegans; [3]),no phene (number of animals) (C. elegans; [3]),paralyzed (number of animals) (C. elegans; [3]),"any phene, mean % fraction of young adults exhibiting any phenotype (coiled, jerky-Unc or paralyzed) (C. elegans; 15uM) [%]","atypical locomotion (number of animals) (C. elegans; 15uM, single replicate counts)","coiled (number of animals) (C. elegans; 15uM, single replicate counts)","no phene (number of animals) (C. elegans; 15uM, single replicate counts)","% effect (motility), DIROIM MF ([1]; 0.016 µM) [%]","% effect (motility), DIROIM MF ([1]; 0.08 µM) [%]","% effect (motility), DIROIM MF ([1]; 0.4 µM) [%]","% effect (motility), DIROIM MF ([1]; 2 µM) [%]","% effect (motility), DIROIM MF ([1]; 10 µM) [%]","% effect (motility), DIROIM L4 ([2]; 10 µM) [%]","% effect (motility), DIROIM L4 ([2]; 50 µM) [%]","mean % any phene (coiled, jerky-Unc or paralyzed) (Pristionchus pacificus; [4]) [%]","mean % any phene (coiled, jerky-Unc or paralyzed) (Pristionchus pacificus; conc 15, observed at one hour) [%]","mean % any phene (coiled, jerky-Unc or paralyzed) (Pristionchus pacificus; conc 60, observed at one hour) [%]",EC50 (Pristionchus pacificus) [µM],further results
c1ccc(N2CCN(CC3CCCCC3)CC2)cc1 [Nemacol-12],16.1842,0 and 7 and 11,0 and 1,20 and 11 and 9,0,39.1667,4 and 2 and 0 and 1 and 17 and 10,0 and 3 and 8,16 and 18 and 20 and 19 and 0,0,0,0,0,0,0,5,0,38.3333,98.3333,17.3 ± 6.3,"paralyzed (number of animals) (C. elegans; 15uM, single replicate counts): 0 and 2; any phene, mean % fraction of young adults exhibiting any phenotype (coiled, jerky-Unc or paralyzed) (C. elegans; 60uM): 84.1667%; atypical locomotion (number of animals) (C. elegans; 60uM, single replicate counts): 11 and 14 and 7 and 10 and 2 and 1; coiled (number of animals) (C. elegans; 60uM, single replicate counts): 3 and 4 and 5 and 6 and 14 and 19; no phene (number of animals) (C. elegans; 60uM, single replicate counts): 6 and 2 and 7 and 4 and 0; paralyzed (number of animals) (C. elegans; 60uM, single replicate counts): 0 and 1 and 4; EC50 (C. elegans; 1 h): 18.8 ± 17.5 µM; % effect (motility), DIROIM L4 ([2]; 2 µM): 6%"
FC(F)(F)c1cccc(N2CCN(C3CCCCCCC3)CC2)c1 [Nemacol-55],,,,,,,,,,0,0,0,0,0,15,35,5,8.333,59.1667,49.2 ± 6.2,"atypical locomotion (number of animals) (C. elegans; [5]): 5 and 6 and 2 and 3 and 8; coiled (number of animals) (C. elegans; [5]): 0; no phene (number of animals) (C. elegans; [5]): 15 and 14 and 18 and 17 and 12; paralyzed (number of animals) (C. elegans; [5]): 0; any phene: mean % fraction of young adults exhibiting any phenotype (coiled, jerky-Unc or paralyzed) (C. elegans; 3.75uM): 26.6667%; atypical locomotion (number of animals) (C. elegans; [6]): 11 and 15 and 8 and 9 and 19 and 18; coiled (number of animals) (C. elegans; [6]): 1 and 0 and 2; no phene (number of animals) (C. elegans; [6]): 8 and 4 and 12 and 11 and 1 and 0; paralyzed (number of animals) (C. elegans; [6]): 0 and 1; any phene: mean % fraction of young adults exhibiting any phenotype (coiled, jerky-Unc or paralyzed) (C. elegans; 15uM): 70%; atypical locomotion (number of animals) (C. elegans; [7]): 18 and 17 and 16 and 11 and 15; coiled (number of animals) (C. elegans; [7]): 0 and 2 and 5 and 4 and 3; no phene (number of animals) (C. elegans; [7]): 0 and 2; paralyzed (number of animals) (C. elegans; [7]): 2 and 1 and 0 and 4; any phene: mean % fraction of young adults exhibiting any phenotype (coiled, jerky-Unc or paralyzed) (C. elegans; 60uM): 96.6667%; EC50 (C. elegans; [8]): 7.9 ± 3.5 µM"
Fc1ccc(N2CCN(CC3CCCCC3)CC2)cc1 [Nemacol-9],21.6667,0 and 14 and 12,0,20 and 6 and 8,0,44.1667,5 and 3 and 1 and 2 and 16 and 11,2 and 0 and 4 and 7,13 and 17 and 19 and 18 and 0,0,0,0,0,0,5,10,1.667,10,100,20,"paralyzed (number of animals) (C. elegans; 15uM, single replicate counts): 0 and 2; any phene, mean % fraction of young adults exhibiting any phenotype (coiled, jerky-Unc or paralyzed) (C. elegans; 60uM): 95%; atypical locomotion (number of animals) (C. elegans; 60uM, single replicate counts): 11 and 13 and 12 and 14 and 3 and 1; coiled (number of animals) (C. elegans; 60uM, single replicate counts): 6 and 5 and 4 and 8 and 13; no phene (number of animals) (C. elegans; 60uM, single replicate counts): 0 and 4 and 2; paralyzed (number of animals) (C. elegans; 60uM, single replicate counts): 3 and 2 and 0 and 9 and 6; EC50 (C. elegans; [8]): 14.4 ± 13.3 µM; % effect (motility), DIROIM L4 ([2]; 2 µM): 5%"
O=[N+]([O-])c1cccc(CN2CCN(C3CCCCC3)CC2)c1 [Nemacol-14],0.8333,0,0,20 and 19,0 and 1,0,0,0,20,0,0,0,0,0,5,5,0,0.8333,12.5,> 60,"paralyzed (number of animals) (C. elegans; 15uM, single replicate counts): 0; any phene, mean % fraction of young adults exhibiting any phenotype (coiled, jerky-Unc or paralyzed) (C. elegans; 60uM): 6.667%; atypical locomotion (number of animals) (C. elegans; 60uM, single replicate counts): 0 and 2; coiled (number of animals) (C. elegans; 60uM, single replicate counts): 0 and 2; no phene (number of animals) (C. elegans; 60uM, single replicate counts): 20 and 18 and 16; paralyzed (number of animals) (C. elegans; 60uM, single replicate counts): 0; EC50 (C. elegans; [8]): > 60 µM; % effect (motility), DIROIM L4 ([2]; 2 µM): 0%"
O=[N+]([O-])c1ccc(N2CCN(Cc3ccccc3)CC2)cc1 [Nemacol-6],0,0,0,20,0,7.5,1 and 0 and 2 and 5,0,19 and 20 and 18 and 15,0,0,0,0,0,6,20,0,1.667,23.3333,> 60,"paralyzed (number of animals) (C. elegans; 15uM, single replicate counts): 0; any phene, mean % fraction of young adults exhibiting any phenotype (coiled, jerky-Unc or paralyzed) (C. elegans; 60uM): 44.1667%; atypical locomotion (number of animals) (C. elegans; 60uM, single replicate counts): 5 and 3 and 4 and 19 and 13; coiled (number of animals) (C. elegans; 60uM, single replicate counts): 1 and 0 and 3; no phene (number of animals) (C. elegans; 60uM, single replicate counts): 14 and 17 and 12 and 16 and 1 and 7; paralyzed (number of animals) (C. elegans; 60uM, single replicate counts): 0; EC50 (C. elegans; 1 h): > 60 µM; % effect (motility), DIROIM L4 ([2]; 2 µM): 5%"
